From the NIST ThermoML archive (doi:10.1021/acs.jced.5b00789) come the findings set out here.

“And” between values parts separate entries of the source, which are not always exact repeats. Identical values can stand only once. ± gives the expanded uncertainty stated by the source.

The conditions of this data set: Liquid.

A word on the mass density: it is mass per unit of volume. Consider `Cc1ccccc1` [toluene], for which the mass density is 867.3 ± 6.3 kg/m3 and 867.61 ± 6.3 kg/m3 and 867.8 ± 6.3 kg/m3 (293.2 K); 855.63 ± 6.5 kg/m3 and 855.94 ± 6.5 kg/m3 and 856.12 ± 6.5 kg/m3 (303.2 K); 844.27 ± 6.8 kg/m3 and 844.57 ± 6.8 kg/m3 and 844.75 ± 6.8 kg/m3 (313.2 K); 833.51 ± 7 kg/m3 and 833.68 ± 7 kg/m3 and 833.21 ± 7 kg/m3 (323.2 K); 822.43 ± 7.2 kg/m3 and 822.73 ± 7.2 kg/m3 and 822.9 ± 7.2 kg/m3 (333.2 K); 811.93 ± 7.4 kg/m3 and 812.22 ± 7.4 kg/m3 and 812.39 ± 7.4 kg/m3 (343.2 K). Besides, the mass density is 801.69 ± 7.6 kg/m3 and 801.98 ± 7.6 kg/m3 and 802.15 ± 7.6 kg/m3 (353.2 K); 791.71 ± 7.8 kg/m3 and 792 ± 7.8 kg/m3 and 792.16 ± 7.8 kg/m3 (363.2 K); 781.97 ± 8 kg/m3 and 782.26 ± 8 kg/m3 and 782.42 ± 8 kg/m3 (373.2 K).

Take `CC1CCCCC1` [methylcyclohexane]: the mass density was 769.72 ± 8.2 kg/m3 and 769.91 ± 8.2 kg/m3 and 770.07 ± 8.2 kg/m3 (293.2 K, 101.33 kPa); 761.08 ± 8.4 kg/m3 and 761.27 ± 8.4 kg/m3 and 761.42 ± 8.4 kg/m3 (303.2 K, 101.33 kPa); 752.63 ± 8.6 kg/m3 and 752.82 ± 8.6 kg/m3 and 752.97 ± 8.6 kg/m3 (313.2 K, 101.33 kPa); 744.55 ± 8.8 kg/m3 and 744.71 ± 8.7 kg/m3 and 744.37 ± 8.8 kg/m3 (323.2 K, 101.33 kPa); 736.29 ± 8.9 kg/m3 and 736.47 ± 8.9 kg/m3 and 736.62 ± 8.9 kg/m3 (333.2 K, 101.33 kPa); 728.38 ± 9.1 kg/m3 and 728.56 ± 9.1 kg/m3 and 728.71 ± 9.1 kg/m3 (343.2 K, 101.33 kPa). In addition, the mass density by setting is: (353.2 K, 101.33 kPa) 720.64 ± 9.3 kg/m3 and 720.82 ± 9.3 kg/m3 and 720.97 ± 9.3 kg/m3; (363.2 K, 101.33 kPa) 713.07 ± 9.4 kg/m3 and 713.24 ± 9.4 kg/m3 and 713.39 ± 9.4 kg/m3; (373.2 K, 101.33 kPa) 705.65 ± 9.6 kg/m3 and 705.82 ± 9.6 kg/m3 and 705.96 ± 9.6 kg/m3.

Consider `CCn1c2ccccc2c2ccccc21` [9-ethylcarbazole], for which the mass density reads like this: (343.2 K, 101.33 kPa) 1062.78 ± 6.6 kg/m3 and 1062.93 ± 6.6 kg/m3 and 1063.05 ± 6.6 kg/m3; (353.2 K, 101.33 kPa) 1055.37 ± 6.4 kg/m3 and 1055.51 ± 6.4 kg/m3 and 1055.63 ± 6.4 kg/m3; (363.2 K, 101.33 kPa) 1048.06 ± 6.3 kg/m3 and 1048.2 ± 6.3 kg/m3 and 1048.32 ± 6.3 kg/m3; (373.2 K, 101.33 kPa) 1040.99 ± 6.1 kg/m3 and 1041.11 ± 6.1 kg/m3 and 1040.85 ± 6.1 kg/m3.
